Assay results reported in PubChem BioAssay AID1259407 (Chemical Carcinogenesis Research Information System (CCRIS), 2018).
Calls of active or inactive are those of the source. The rule behind the calls is not given here.

System: CCRIS mutagenicity, Ames/micronucleus/aberration tests
Test: CCRIS mutagenicity studies

Measured: mutagenic call

O=NO
active: Test System: AMES SALMONELLA TYPHIMURIUM, Strain/Indicator: TA100, Metabolic Activation: HAMSTER LIVER S-9, AROCLOR 1254 (30%), Method: PREINCUBATION active; positive | Test System: AMES SALMONELLA TYPHIMURIUM, Strain/Indicator: TA100, Metabolic Activation: HAMSTER, LIVER, S-9, AROCLOR 1254 (30%), Method: PREINCUBATION active; positive | Test System: AMES SALMONELLA TYPHIMURIUM, Strain/Indicator: TA100, Metabolic Activation: NONE, Method: PREINCUBATION active; positive | Test System: AMES SALMONELLA TYPHIMURIUM, Strain/Indicator: TA100, Metabolic Activation: NONE, Method: STANDARD PLATE active; positive | Test System: AMES SALMONELLA TYPHIMURIUM, Strain/Indicator: TA100, Metabolic Activation: RAT LIVER S-9, AROCLOR 1254 (30%), Method: PREINCUBATION active; positive | Test System: AMES SALMONELLA TYPHIMURIUM, Strain/Indicator: TA100, Metabolic Activation: RAT, LIVER, S-9, AROCLOR 1254 (30%), Method: PREINCUBATION active; positive | Test System: AMES SALMONELLA TYPHIMURIUM, Strain/Indicator: TA100, Metabolic Activation: RAT, LIVER, S-9, AROCLOR 1254, Method: PREINCUBATION active; positive | Test System: AMES SALMONELLA TYPHIMURIUM, Strain/Indicator: TA100, Metabolic Activation: RAT, LIVER, S-9, AROCLOR 1254, Method: STANDARD PLATE active; positive | Test System: AMES SALMONELLA TYPHIMURIUM, Strain/Indicator: TA100, Metabolic Activation: RAT, LIVER, S-9, Method: STANDARD PLATE active; positive | Test System: AMES SALMONELLA TYPHIMURIUM, Strain/Indicator: TA104, Metabolic Activation: RAT, LIVER, S-9, AROCLOR 1254, Method: PREINCUBATION active; positive | Test System: AMES SALMONELLA TYPHIMURIUM, Strain/Indicator: TA1530, Metabolic Activation: NONE, Method: PREINCUBATION active; positive | Test System: AMES SALMONELLA TYPHIMURIUM, Strain/Indicator: TA1530, Metabolic Activation: NONE, Method: STANDARD PLATE active; positive | Test System: AMES SALMONELLA TYPHIMURIUM, Strain/Indicator: TA1530, Metabolic Activation: RAT, LIVER, S-9, AROCLOR 1254, Method: PREINCUBATION active; positive | Test System: AMES SALMONELLA TYPHIMURIUM, Strain/Indicator: TA1530, Metabolic Activation: RAT, LIVER, S-9, AROCLOR 1254, Method: STANDARD PLATE active; positive | Test System: AMES SALMONELLA TYPHIMURIUM, Strain/Indicator: TA1535, Metabolic Activation: NONE, Method: PREINCUBATION active; positive | Test System: AMES SALMONELLA TYPHIMURIUM, Strain/Indicator: TA1535, Metabolic Activation: NONE, Method: STANDARD PLATE active; positive | Test System: AMES SALMONELLA TYPHIMURIUM, Strain/Indicator: TA1535, Metabolic Activation: RAT, LIVER, S-9, AROCLOR 1254, Method: PREINCUBATION active; positive | Test System: AMES SALMONELLA TYPHIMURIUM, Strain/Indicator: TA1535, Metabolic Activation: RAT, LIVER, S-9, AROCLOR 1254, Method: STANDARD PLATE active; positive | Test System: AMES SALMONELLA TYPHIMURIUM, Strain/Indicator: TA1535, Metabolic Activation: RAT, LIVER, S-9, Method: STANDARD PLATE active; positive | Test System: CHINESE HAMSTER V-79, Strain/Indicator: V-79/6-THIOGUANINE, Metabolic Activation: NONE active; positive | Test System: MOUSE LYMPHOMA, Strain/Indicator: L5178Y (TK+/TK-), Metabolic Activation: NONE, Method: SUSPENSION/PLATE active; positive
inactive: End Point: IN VIVO MICRONUCLEUS, Test System: BONE MARROW POLYCHROMATIC ERYTHROCYTES, Species: MOUSE, Strain/Sex: DDY/MALE, Route: IP inactive; negative | End Point: IN VIVO MICRONUCLEUS, Test System: BONE MARROW POLYCHROMATIC ERYTHROCYTES, Species: MOUSE, Strain/Sex: DDY/MALE, Route: ORAL inactive; negative | End Point: In vitro chromosomal aberrations, Test System: Chinese hamster lung CHL/IU cells, Metabolic Activation: None inactive; negative | Test System: AMES SALMONELLA TYPHIMURIUM, Strain/Indicator: DJ400, Metabolic Activation: NONE, Method: PREINCUBATION inactive; negative | Test System: AMES SALMONELLA TYPHIMURIUM, Strain/Indicator: DJ400, Metabolic Activation: NONE, Method: STANDARD PLATE inactive; negative | Test System: AMES SALMONELLA TYPHIMURIUM, Strain/Indicator: DJ400, Metabolic Activation: RAT, LIVER, S-9, AROCLOR 1254, Method: PREINCUBATION inactive; negative | Test System: AMES SALMONELLA TYPHIMURIUM, Strain/Indicator: DJ400, Metabolic Activation: RAT, LIVER, S-9, AROCLOR 1254, Method: STANDARD PLATE inactive; negative | Test System: AMES SALMONELLA TYPHIMURIUM, Strain/Indicator: DJ460, Metabolic Activation: NONE, Method: PREINCUBATION inactive; negative | Test System: AMES SALMONELLA TYPHIMURIUM, Strain/Indicator: DJ460, Metabolic Activation: NONE, Method: STANDARD PLATE inactive; negative | Test System: AMES SALMONELLA TYPHIMURIUM, Strain/Indicator: DJ460, Metabolic Activation: RAT, LIVER, S-9, AROCLOR 1254, Method: PREINCUBATION inactive; negative | Test System: AMES SALMONELLA TYPHIMURIUM, Strain/Indicator: DJ460, Metabolic Activation: RAT, LIVER, S-9, AROCLOR 1254, Method: STANDARD PLATE inactive; negative | Test System: AMES SALMONELLA TYPHIMURIUM, Strain/Indicator: TA97, Metabolic Activation: NONE, Method: STANDARD PLATE inactive; negative | Test System: AMES SALMONELLA TYPHIMURIUM, Strain/Indicator: TA97, Metabolic Activation: RAT, LIVER, S-9, AROCLOR 1254, Method: STANDARD PLATE inactive; negative | Test System: AMES SALMONELLA TYPHIMURIUM, Strain/Indicator: TA98, Metabolic Activation: HAMSTER LIVER S-9, AROCLOR 1254 (30%), Method: PREINCUBATION inactive; negative | Test System: AMES SALMONELLA TYPHIMURIUM, Strain/Indicator: TA98, Metabolic Activation: HAMSTER, LIVER, S-9, AROCLOR 1254 (30%), Method: PREINCUBATION inactive; negative | Test System: AMES SALMONELLA TYPHIMURIUM, Strain/Indicator: TA98, Metabolic Activation: NONE, Method: PREINCUBATION inactive; negative | Test System: AMES SALMONELLA TYPHIMURIUM, Strain/Indicator: TA98, Metabolic Activation: NONE, Method: STANDARD PLATE inactive; negative | Test System: AMES SALMONELLA TYPHIMURIUM, Strain/Indicator: TA98, Metabolic Activation: RAT LIVER S-9, AROCLOR 1254 (30%), Method: PREINCUBATION inactive; negative | Test System: AMES SALMONELLA TYPHIMURIUM, Strain/Indicator: TA98, Metabolic Activation: RAT, LIVER, S-9, AROCLOR 1254 (30%), Method: PREINCUBATION inactive; negative | Test System: AMES SALMONELLA TYPHIMURIUM, Strain/Indicator: TA98, Metabolic Activation: RAT, LIVER, S-9, AROCLOR 1254, Method: STANDARD PLATE inactive; negative | Test System: AMES SALMONELLA TYPHIMURIUM, Strain/Indicator: TA98, Metabolic Activation: RAT, LIVER, S-9, Method: STANDARD PLATE inactive; negative | Test System: AMES SALMONELLA TYPHIMURIUM, Strain/Indicator: TA102, Metabolic Activation: NONE, Method: PREINCUBATION inactive; negative | Test System: AMES SALMONELLA TYPHIMURIUM, Strain/Indicator: TA102, Metabolic Activation: NONE, Method: STANDARD PLATE inactive; negative | Test System: AMES SALMONELLA TYPHIMURIUM, Strain/Indicator: TA102, Metabolic Activation: RAT, LIVER, S-9, AROCLOR 1254, Method: PREINCUBATION inactive; negative | Test System: AMES SALMONELLA TYPHIMURIUM, Strain/Indicator: TA102, Metabolic Activation: RAT, LIVER, S-9, AROCLOR 1254, Method: STANDARD PLATE inactive; negative | Test System: AMES SALMONELLA TYPHIMURIUM, Strain/Indicator: TA1537, Metabolic Activation: NONE, Method: STANDARD PLATE inactive; negative | Test System: AMES SALMONELLA TYPHIMURIUM, Strain/Indicator: TA1537, Metabolic Activation: RAT, LIVER, S-9, AROCLOR 1254, Method: STANDARD PLATE inactive; negative | Test System: AMES SALMONELLA TYPHIMURIUM, Strain/Indicator: TA1538, Metabolic Activation: NONE, Method: STANDARD PLATE inactive; negative | Test System: AMES SALMONELLA TYPHIMURIUM, Strain/Indicator: TA1538, Metabolic Activation: RAT, LIVER, S-9, AROCLOR 1254, Method: STANDARD PLATE inactive; negative | Test System: AMES SALMONELLA TYPHIMURIUM, Strain/Indicator: TA1538, Metabolic Activation: RAT, LIVER, S-9, Method: STANDARD PLATE inactive; negative | Test System: AMES SALMONELLA TYPHIMURIUM, Strain/Indicator: YG1024, Metabolic Activation: NONE, Method: PREINCUBATION inactive; negative | Test System: AMES SALMONELLA TYPHIMURIUM, Strain/Indicator: YG1024, Metabolic Activation: NONE, Method: STANDARD PLATE inactive; negative | Test System: AMES SALMONELLA TYPHIMURIUM, Strain/Indicator: YG1024, Metabolic Activation: RAT, LIVER, S-9, AROCLOR 1254, Method: PREINCUBATION inactive; negative | Test System: AMES SALMONELLA TYPHIMURIUM, Strain/Indicator: YG1024, Metabolic Activation: RAT, LIVER, S-9, AROCLOR 1254, Method: STANDARD PLATE inactive; negative | Test System: E. COLI, Strain/Indicator: WP2, Metabolic Activation: NONE, Method: STANDARD PLATE inactive; negative | Test System: E. COLI, Strain/Indicator: WP2, Metabolic Activation: RAT, LIVER, S-9, AROCLOR 1254, Method: STANDARD PLATE inactive; negative | Test System: E.COLI, Strain/Indicator: WP2UVRA/PKM101, Metabolic Activation: NONE, Method: PREINCUBATION inactive; negative | Test System: E.COLI, Strain/Indicator: WP2UVRA/PKM101, Metabolic Activation: RAT LIVER S-9, PHENOBARBITAL AND 5,6-BENZOFLAVONE, Method: PREINCUBATION inactive; negative
